Several values for one entry are separate records, joined by “and”; a condition that tells them apart may be missing. Identical values can stand only once. Like-named read-outs stand apart in the source and are kept apart here. Non-standard residues stand in square brackets, D forms with d. Residues, ends and D or L forms follow the SMILES beside them.
Key:
[1] = test system: hyperalgesia evoked by IL-1β; experiment: Modified Randall-Sellito rat paw pressure test, hyperalgesia evoked by IL-1β; format: in vivo; conditions: for DELTA REACTION TIME: 3h after IL-1β, control 23.9; for ED50 antagonising IL-1β evoked hyperalgesia / antagonism of hyperalgesia evoked by IL-1β: rats; for antagonism of hyperalgesia evoked by IL-1β: peptide given before IL-1β
Description: The hyperalgesic activity of IL-1β was investigated by a modified Randall-Sellito rat paw pressure test (Ferreira et al, Eur. J. Pharacol. 53, 39-48, 1978).
The IL-1β was given either intraplantar (ipl, injection volume=0.1 ml) or intraperitoneally (ip, injection volume=0.3 ml).
The intensity of hyperalgesia was quantified as the variation of the reaction time (Δ reaction time, sec) obtained by subtracting the value measured 1,2,3 or 4h after administration of the hyperalgesic agent from the pre-injection control reaction time (zero time). The experimenter was unaware of the group treatments.
The vertical bars are standard errors of the means (s.e.m's) of values obtained in groups of 5 rats.
Each symbol or histogram represents the mean response of 5 animals per treatment group. Vertical bars are s.e.m's.
The data are means±s.e.m.'s of 5 animals per treatment group.
Each symbol represents the mean response of 5 animals per treatment group. Vertical bars are s.e.m.'s.
Treatments were given ip, lh before Il-1β, also given ip. There were 5 animals per treatment group.
Delta reaction time was measured 3h after Il-1β administration.
The Control was II-1β (0.05U), given ip.

[2] = test system: hyperalgesia evoked by acetic acid; experiment: Contortions (writhing) evoked by acetic acid, Examples 9 and 10; format: in vivo, mice; conditions: Example 10; for total number of contorsions during 20 minutes after ip challenge: control 45.3
Description: (§1) Iloprost is a stable analogue of prostacyclin and has the formula: [drawing 4]
(§2) Example 9 was repeated with some groups of mice given indomethacin at various doses rather than the peptide K(D)PT. A control group of mice received neither indomethacin nor K(D)PT. The data are the total number of contorsions measured during 20 minutes after the ip challenge.

[3] = test system: hyperalgesia evoked by Iloprost; experiment: Contortions (writhing) evoked by Iloprost, Examples 9 and 10; format: in vivo, mice; conditions: Example 10, Iloprost 10 μg/kg; for total number of contorsions during 20 minutes after ip challenge: control 39.4
Description: as §1, §2

[4] = test system: human blood mononuclear cells (MNC); experiment: PGE2 release by human blood mononuclear cells; format: cell-based
Description: The effect of K(D)PT and indomethacin on PGE2 release by human blood mononuclear cells (MNC) was investigated. The MNC were isolated from buffy coat residues by density gradient centrifugation (Ficoll-hypaque, Sigma) and resuspended in RPMI 1640 culture medium (Gibco)+ 2% inactivated foetal calf serum (Imperial Laboratories). […] Values are means of quadruplicates ±s.e.m.'s. PGE2 concentrations were measured by radioimmunoassay (NEN Research Products).

[5] = test system: hyperalgesia evoked by acetic acid; experiment: Contorsions evoked by acetic acid, Example 19; format: in vivo, mice; conditions: for number of contorsions (median), 10 to 20 min after acetic acid: 30 min before acetic acid
Description: The number of contorsions (abdominal constrictions or writhes) was counted in the period between 10 and 20 min after ip challenge with acetic acid by an observer unaware of drug treatment.

[6] = mouse, in vivo
[7] = Gastric lesions in mice
[8] = test system: hyperalgesia evoked by PGE2; experiment: Rat paw pressure test, hyperalgesia evoked by PGE2; format: in vivo; conditions: for DELTA REACTION TIME: 3 h after PGE2, control 16.8; for ED50 antagonising PGE2 evoked hyperalgesia / antagonism of hyperalgesia evoked by PGE2: rats
[9] = test system: hyperalgesia evoked by DbcAMP; experiment: Rat paw pressure test, hyperalgesia evoked by DbcAMP; format: in vivo; conditions: for % change of delta reaction time vs control (=100%) / DELTA REACTION TIME: 200 μg/150 g rat ip 1 h before DbcAMP (100 μg/paw) ipl; for DELTA REACTION TIME: 3 h after DbcAMP, control 17.2
[10] = test system: febrile rabbits; conditions: Richards and Lipton, Peptides 5 (1984) 815-817; cited from earlier work
[11] = in vivo
[12] = test system: hyperalgesia evoked by IL-1β; conditions: reference analgesics; cited from earlier work
[13] = indomethacin 100 μg ipl 30 minutes before 0.05U IL-1β ipl or ip
[14] = 20 μg/150 g rat ip 1h before IL-1β (0.05U) ip
[15] = 50 μg/150 g rat ip 1h before IL-1β (0.05U) ip
[16] = 100 μg/150 g rat ip 1h before IL-1β (0.05U) ip
[17] = 200 μg/150 g rat ip 1h before IL-1β (0.05U) ip
[18] = 20 μg/150 g rat ip 1h before PGE2 ipl
[19] = 50 μg/150 g rat ip 1h before PGE2 ipl
[20] = 100 μg/150 g rat ip 1h before PGE2 ipl
[21] = 200 μg/150 g rat ip 1h before PGE2 ipl

## COc1ccc2c(c1)c(CC(=O)O)c(C)n2C(=O)c1ccc(Cl)cc1 [Indomethacin, indomethacin]
[1]; [13]
  effect of pretreatment on hyperalgesic response to IL-1β, contralateral paws (CL): no effect
  effect of pretreatment on hyperalgesic response to IL-1β, treated paws (I): markedly attenuated
[2]; acetic acid .6% 0.1 ml/10 g, 1.25 mg/kg
  total number of contorsions during 20 minutes after ip challenge: 34.6
[2]; acetic acid .6%, 1.25 mg/kg
  (-%) reduction of contorsions vs control: 23.6%
[2]; acetic acid .6%, 5.0 mg/kg
  (-%) reduction of contorsions vs control: 46.3%
  total number of contorsions during 20 minutes after ip challenge: 24.3
[2]; acetic acid .6%, 20.0 mg/kg
  (-%) reduction of contorsions vs control: 57.4%
  total number of contorsions during 20 minutes after ip challenge: 19.3
[3]; 1.25 mg/kg
  (-%) reduction of contorsions vs control: 7.6%
  total number of contorsions during 20 minutes after ip challenge: 36.4
[3]; 5.0 mg/kg
  (-%) reduction of contorsions vs control: 26.0%
  total number of contorsions during 20 minutes after ip challenge: 29.2
[3]; 20.0 mg/kg
  (-%) reduction of contorsions vs control: 46.0%
  total number of contorsions during 20 minutes after ip challenge: 21.3
[4]
  effect on production of PGE2 / prostaglandin: abolished PGE2 production
[4]; 2 μg/ml, 5.9 micromoles/L, added 45 min before, ethanol control 2.0
  PGE2 release by MNC incubated for 4h with IL-1α (50 U/ml): 0.03 ± 0.0007 ng/mL
[4]; 2 μg/ml, 5.9 micromoles/L, added 45 min before, ethanol control 2.1
  PGE2 release by MNC incubated for 4h with IL-1β (50 U/ml): 0.03 ± 0.0005 ng/mL
[4]; 2 μg/ml, 5.9 micromoles/L, added 45 min before, ethanol control 3.1
  PGE2 release by MNC incubated for 4h with E. coli endotoxin (25 pg/ml): 0.03 ± 0.0004 ng/mL
[4]; 2 μg/ml, 5.9 micromoles/L, ethanol control 1.3
  PGE2 release by MNC (5 × 10^6 cells/ml) incubated for 4h with Saline control (0.9% w/v): 0.03 ± 0.0002 ng/ml
[5]; 2.5 mg/kg ip
  % reductions from control values in mice injected with saline: -37%
  number of contorsions (median), 10 to 20 min after acetic acid: 16.5
[5]; 5 mg/kg ip
  % reductions from control values in mice injected with saline: -61.5%
  number of contorsions (median), 10 to 20 min after acetic acid: 10
[5]; 10 mg/kg ip
  % reductions from control values in mice injected with saline: -61.5%
  number of contorsions (median), 10 to 20 min after acetic acid: 10
[6]
  gastric erosions, % of the mice: 100%
  gastric lesions: caused gastric lesions

## NCCCC[C@H](N)C(=O)N1CCC[C@@H]1C(=O)O [K(D)P, Lys-D-Pro] (H-Lys-[dP]-OH)
[5]; 5 mg/kg ip
  % reductions from control values in mice injected with saline: -58%
  number of contorsions (median), 10 to 20 min after acetic acid: 11
[5]; 5 mg/kg po
  % reductions from control values in mice injected with saline: -10%
  number of contorsions (median), 10 to 20 min after acetic acid: 19
[5]; 10 mg/kg po
  % reductions from control values in mice injected with saline: -36%
  number of contorsions (median), 10 to 20 min after acetic acid: 13.5
[5]; 20 mg/kg ip
  % reductions from control values in mice injected with saline: -77%
  number of contorsions (median), 10 to 20 min after acetic acid: 6
[5]; 20 mg/kg po
  % reductions from control values in mice injected with saline: -38%
  number of contorsions (median), 10 to 20 min after acetic acid: 14
[5]
  analgesic activity against hyperalgesia evoked by acetic acid, given ip: effective analgesic
[5]; po
  analgesic activity against hyperalgesia evoked by acetic acid, given orally: effective analgesic

## C[C@@H](O)[C@H](NC(=O)[C@H]1CCCN1C(=O)[C@@H](N)CCCCN)C(=O)O [K(D)PT, Lys-D-Pro-Thr] (H-Lys-[dP]-Thr-OH)
[7]; 32 mg/kg
  gastric lesions: No lesions were observed
[7]; mice of Example 10
  gastric lesions: did not

## CC(C)[C@H](NC(=O)[C@H]1CCCN1C(=O)[C@@H](N)CCCCN)C(=O)O [K(D)PV, Lys-D-Pro-Val] (H-Lys-[dP]-Val-OH)
[1]; [14]
  % change of delta reaction time vs control (=100%): -23.9%
  DELTA REACTION TIME: 18.2 ± 0.4 s
[1]; [15]
  % change of delta reaction time vs control (=100%): -64.4%
  DELTA REACTION TIME: 8.5 ± 0.6 s
[1]; [16]
  % change of delta reaction time vs control (=100%): 84.1%
  DELTA REACTION TIME: 3.8 ± 0.7 s
[1]; [17]
  % change of delta reaction time vs control (=100%): -88.3%
  DELTA REACTION TIME: 2.8 ± 0.6 s
[1]
  ED50 antagonising IL-1β evoked hyperalgesia: 40 μg/150 g rat
  antagonism of hyperalgesia evoked by IL-1β: more potent antagonists of I1-1β-evoked hyperalgesia than Lys-D-Pro-Thr
[8]; [18]
  % change of delta reaction time vs control (=100%): -16.7%
  DELTA REACTION TIME: 14.0 ± 0.4 s
[8]; [19]
  % change of delta reaction time vs control (=100%): -20.2%
  DELTA REACTION TIME: 13.4 ± 0.4 s
[8]; [20]
  % change of delta reaction time vs control (=100%): -46±4%
  DELTA REACTION TIME: 9.0 ± 0.2 s
[8]; [21]
  % change of delta reaction time vs control (=100%): -64.3%
  DELTA REACTION TIME: 6.0 ± 0.3 s
[8]
  ED50 antagonising PGE2 evoked hyperalgesia: ~140 μg/150 g rat
  antagonism of hyperalgesia evoked by PGE2: antagonize hyperalgesia evoked by PGE2
[9]
  % change of delta reaction time vs control (=100%): -7.0%
  DELTA REACTION TIME: 16.0 ± 0.2 s
[5]; 2 mg/kg ip
  % reductions from control values in mice injected with saline: -33%
  number of contorsions (median), 10 to 20 min after acetic acid: 19
[5]; 10 mg/kg ip
  % reductions from control values in mice injected with saline: -38%
  number of contorsions (median), 10 to 20 min after acetic acid: 17
[5]; 30 mg/kg ip
  % reductions from control values in mice injected with saline: -45%
  number of contorsions (median), 10 to 20 min after acetic acid: 15.5
[5]; 100 mg/kg ip
  % reductions from control values in mice injected with saline: -74%
  number of contorsions (median), 10 to 20 min after acetic acid: 7
[5]; 100 mg/kg po
  % reductions from control values in mice injected with saline: -52%
  number of contorsions (median), 10 to 20 min after acetic acid: 13
[5]
  analgesic activity against hyperalgesia evoked by acetic acid, given ip: dose-related analgesic activity

## CC(C)[C@H](NC(=O)[C@@H]1CCCN1C(=O)[C@@H](N)CCCCN)C(=O)O [KPV, Lys-Pro-Val] (H-Lys-Pro-Val-OH)
[1]; [14]
  % change of delta reaction time vs control (=100%): -21.3%
  DELTA REACTION TIME: 18.8 ± 0.3 s
[1]; [15]
  % change of delta reaction time vs control (=100%): -52.7%
  DELTA REACTION TIME: 11.3 ± 0.5 s
[1]; [16]
  % change of delta reaction time vs control (=100%): -69.9%
  DELTA REACTION TIME: 7.2 ± 0.6 s
[1]; [17]
  % change of delta reaction time vs control (=100%): -83.7%
  DELTA REACTION TIME: 3.9 ± 0.3 s
[1]
  ED50 antagonising IL-1β evoked hyperalgesia: 70 μg/150 g rat
  antagonism of hyperalgesia evoked by IL-1β: more potent antagonists of I1-1β-evoked hyperalgesia than Lys-D-Pro-Thr
[8]; [18]
  % change of delta reaction time vs control (=100%): -11.3%
  DELTA REACTION TIME: 14.9 ± 0.4 s
[8]; [19]
  % change of delta reaction time vs control (=100%): -22.6%
  DELTA REACTION TIME: 13.0 ± 0.3 s
[8]; [20]
  % change of delta reaction time vs control (=100%): -41.1%
  DELTA REACTION TIME: 9.9 ± 0.2 s
[8]; [21]
  % change of delta reaction time vs control (=100%): -53.6%
  DELTA REACTION TIME: 7.8 ± 0.6 s
[8]
  ED50 antagonising PGE2 evoked hyperalgesia: approximately 170 μg/150 g rat
  antagonism of hyperalgesia evoked by PGE2: antagonize hyperalgesia evoked by PGE2
[9]
  % change of delta reaction time vs control (=100%): -8.1%
  DELTA REACTION TIME: 15.8 ± 0.3 s
[10]
  antipyretic effect: antipyretic effect

## CN1CC[C@]23c4c5ccc(O)c4O[C@H]2[C@@H](O)C=C[C@H]3[C@H]1C5 [Morphine, morphine]
[9]; rat, in vivo
  antagonism of hyperalgesia evoked by DbcAMP: effective antagonist
[11]
  reaction time difference, hot plate: 3.52 s and 5.55 s
[12]
  antagonism of on-going hyperalgesia: able to antagonize on-going hyperalgesia

## Cc1c(N(C)CS(=O)(=O)O)c(=O)n(-c2ccccc2)n1C [dipyrone]
[12]
  antagonism of on-going hyperalgesia: able to antagonize on-going hyperalgesia

Reference: US5389615A, “Peptides and pharmaceutical composition thereof in the treatment of pain” (British Technology Group Ltd., priority 1988, dated 1995)
